By IC50 is commonly meant the concentration that gives 50% inhibition. High values mean a need for much substance, low ones inhibition by little substance. The term inhibition denotes the change of the read-out against control, counted positive when it falls.

Test [1] is filed under the species Homo sapiens. Description: Selectivity ratio of IC50 for JAK1 (unknown origin) to IC50 for JAK2 (unknown origin).
For test [2], the target named is T1, Tyrosine-protein kinase JAK1 (Homo sapiens, UniProt P23458). The test can be described thus: Inhibition of JAK1 (unknown origin) after 1 hr by FRET-based Z'-Lyte assay.
T1 sequence (P23458 whole entry): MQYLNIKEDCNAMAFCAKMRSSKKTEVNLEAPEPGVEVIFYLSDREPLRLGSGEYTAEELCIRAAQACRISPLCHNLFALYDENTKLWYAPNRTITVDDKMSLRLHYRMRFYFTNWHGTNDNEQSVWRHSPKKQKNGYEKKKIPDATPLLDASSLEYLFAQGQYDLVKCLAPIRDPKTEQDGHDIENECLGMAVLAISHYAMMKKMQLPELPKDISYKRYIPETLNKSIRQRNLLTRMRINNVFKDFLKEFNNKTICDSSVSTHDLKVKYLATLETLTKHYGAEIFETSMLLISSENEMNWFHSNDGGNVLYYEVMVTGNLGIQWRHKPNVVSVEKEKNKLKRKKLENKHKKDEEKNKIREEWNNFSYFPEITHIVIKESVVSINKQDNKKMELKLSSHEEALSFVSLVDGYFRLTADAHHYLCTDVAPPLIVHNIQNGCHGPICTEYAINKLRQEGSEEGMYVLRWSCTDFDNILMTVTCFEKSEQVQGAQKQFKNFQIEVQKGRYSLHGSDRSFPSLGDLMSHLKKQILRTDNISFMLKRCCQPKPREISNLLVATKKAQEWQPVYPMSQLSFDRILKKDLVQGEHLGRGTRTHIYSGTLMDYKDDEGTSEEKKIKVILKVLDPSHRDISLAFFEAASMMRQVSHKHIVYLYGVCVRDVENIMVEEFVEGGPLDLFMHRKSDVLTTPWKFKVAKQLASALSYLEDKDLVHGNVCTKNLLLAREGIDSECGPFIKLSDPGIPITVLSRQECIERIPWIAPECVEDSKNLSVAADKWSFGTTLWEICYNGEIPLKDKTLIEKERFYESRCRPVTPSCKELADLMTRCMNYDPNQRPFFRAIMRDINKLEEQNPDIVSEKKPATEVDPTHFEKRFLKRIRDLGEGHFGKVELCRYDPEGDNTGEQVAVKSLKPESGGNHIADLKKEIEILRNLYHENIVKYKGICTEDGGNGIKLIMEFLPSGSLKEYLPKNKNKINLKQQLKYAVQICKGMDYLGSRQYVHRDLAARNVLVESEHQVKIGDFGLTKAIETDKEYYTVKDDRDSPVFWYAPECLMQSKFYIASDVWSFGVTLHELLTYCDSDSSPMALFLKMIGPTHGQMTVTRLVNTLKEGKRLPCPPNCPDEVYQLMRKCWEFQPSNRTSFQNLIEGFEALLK
Test [3] deals with T2, Tyrosine-protein kinase JAK2 (Homo sapiens, UniProt O60674). Description: Inhibition of JAK2 (unknown origin) after 1 hr FRET-based Z'-Lyte assay.
T2 sequence (O60674 whole entry): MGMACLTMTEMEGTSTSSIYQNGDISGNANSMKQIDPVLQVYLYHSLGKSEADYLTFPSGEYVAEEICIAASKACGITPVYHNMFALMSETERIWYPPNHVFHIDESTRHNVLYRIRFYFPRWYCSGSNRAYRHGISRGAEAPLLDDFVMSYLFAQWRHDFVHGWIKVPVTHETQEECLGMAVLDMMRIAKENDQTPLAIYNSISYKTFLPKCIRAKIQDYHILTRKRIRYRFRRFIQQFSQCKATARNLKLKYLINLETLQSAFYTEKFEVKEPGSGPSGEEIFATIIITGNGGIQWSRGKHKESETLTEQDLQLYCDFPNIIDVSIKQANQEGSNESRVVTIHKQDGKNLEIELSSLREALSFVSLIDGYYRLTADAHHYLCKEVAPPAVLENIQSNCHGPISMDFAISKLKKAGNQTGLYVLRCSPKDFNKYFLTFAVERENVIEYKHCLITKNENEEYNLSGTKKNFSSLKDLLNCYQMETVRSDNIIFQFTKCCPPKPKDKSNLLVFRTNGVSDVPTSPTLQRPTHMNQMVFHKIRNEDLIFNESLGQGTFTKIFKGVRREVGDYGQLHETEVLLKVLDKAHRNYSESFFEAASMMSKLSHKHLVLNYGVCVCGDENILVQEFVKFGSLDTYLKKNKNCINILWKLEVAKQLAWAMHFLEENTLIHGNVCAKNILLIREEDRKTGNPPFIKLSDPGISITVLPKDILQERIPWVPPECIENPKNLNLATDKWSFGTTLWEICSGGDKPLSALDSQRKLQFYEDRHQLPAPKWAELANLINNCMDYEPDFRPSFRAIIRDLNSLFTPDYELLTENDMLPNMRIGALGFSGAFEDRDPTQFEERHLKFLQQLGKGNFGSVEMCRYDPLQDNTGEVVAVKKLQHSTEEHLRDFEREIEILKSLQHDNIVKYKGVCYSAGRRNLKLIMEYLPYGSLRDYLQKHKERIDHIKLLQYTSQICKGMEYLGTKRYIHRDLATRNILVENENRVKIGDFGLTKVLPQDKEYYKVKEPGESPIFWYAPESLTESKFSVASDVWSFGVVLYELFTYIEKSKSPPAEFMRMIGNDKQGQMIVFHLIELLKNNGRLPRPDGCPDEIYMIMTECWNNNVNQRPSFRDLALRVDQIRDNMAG
Test [4] concerns the target T1, Tyrosine-protein kinase JAK1. The test can be described thus: Inhibition of JAK1 (unknown origin) at 20 uM after 1 hr by FRET-based Z'-Lyte assay.
Test [5] shares this target. Description: Inhibition of JAK1 (unknown origin) at 10 uM after 1 hr by FRET-based Z'-Lyte assay.
In test [6] the target is T2, Tyrosine-protein kinase JAK2.
Description: Inhibition of human recombinant JAK2 (808 to 1132 residues) by Z-Lyte assay
Test [7] deals with T1, Tyrosine-protein kinase JAK1.
Description: Inhibition of human recombinant JAK1 (852 to 1142 residues) by Z-Lyte assay

Take `Nc1n[nH]c2ccc(C(=O)Nc3c(Cl)cccc3Cl)cc12`: the Ratio IC50 in test [1] is 16. Also, the IC50 was 0.46 µM in test [2] and 0.028 µM in test [3].
On to `O=C(Nc1ccc2[nH]ncc2c1)c1ccccc1`, for which, in test [4], the inhibition is 17%.
In test [3], `Nc1n[nH]c2ccc(NC(=O)c3c(Cl)cccc3-n3cnnn3)cc12` gave an IC50 of 76.6 µM. The inhibition in test [5] is 10%.
`Nc1n[nH]c2ccc(NC(=O)c3cc(Cl)ccc3Cl)cc12`: the Ratio IC50 in test [1] turned out to be 6.57. Besides, the values for the half-inhibitory concentration (IC50) in test [2] and in test [3] were 0.151 µM and 0.023 µM, respectively.
The corresponding values for `O=C(Nc1ccc2[nH]ncc2c1)c1ccccc1-n1cnnn1` are 14, 33 µM and 2.38 µM.
As to `Nc1n[nH]c2ccc(NC(=O)c3ccccc3-n3cnnn3)cc12`, the Ratio IC50 in test [1] was 5.3. Besides, the IC50 in test [2] worked out at 33.9 µM; in test [3], 6.34 µM.
For `Nc1n[nH]c2ccc(NC(=O)c3cccc(Cl)c3Cl)cc12` the same measures were 3.67, 1.51 µM and 0.411 µM.
For `O=C(Nc1ccc2[nH]ncc2c1)c1ccccc1Cl` the same measures were 18.8, 8.53 µM and 0.453 µM.
In the case of `CNS(=O)(=O)C[C@H]1CC[C@H](N(C)c2ncnc3[nH]ccc23)CC1` [OCLACITINIB], the results for the IC50 in test [6] and in test [7] were 0.018 µM and 0.01 µM, respectively.
In the case of `c1ccc(-n2cnnn2)c(-c2cc(-c3ccc4[nH]ncc4c3)on2)c1`, the Ratio IC50 in test [1] worked out at 1.65. Further, the figures for the IC50 in test [2] and in test [3] were 3.3 µM and 2 µM, respectively.
With `O=C(Nc1ccc2[nH]ncc2c1)c1c(Cl)cccc1-n1cnnn1`, the Ratio IC50 in test [1] amounted to 14. For the same compound, the figures for the IC50 in test [2] and in test [3] were 11.5 µM and 0.82 µM, respectively.
Regarding `c1ccc(-n2cnnn2)c(-c2cn(-c3ccc4[nH]ncc4c3)nn2)c1`, in test [1], the Ratio IC50 was determined as 0.9. For the same compound, the IC50 in test [2] was determined as 8.8 µM; in test [3] it was 9.53 µM.
For `Nc1n[nH]c2ccc(C(=O)Nc3cc(Cl)ccc3Cl)cc12` the same measures were 11, 0.414 µM and 0.038 µM.
The corresponding values for `CCNc1ccccc1C(=O)Nc1ccc2[nH]nc(N)c2c1` are 11, 22 µM and 1.97 µM.
Turning to `O=C(Nc1ccc2[nH]ncc2c1)c1ccccc1Cn1cnnn1`, the Ratio IC50 in test [1] was 2.7. The IC50 is 9.67 µM in test [2] and 3.54 µM in test [3].
The corresponding values for `Clc1cccc(-n2cnnn2)c1-c1nc(-c2ccc3[nH]ncc3c2)cs1` are 12.8, 21.6 µM and 1.68 µM.
The corresponding values for `O=C(Nc1ccc2[nH]ncc2c1)c1cccc(-n2cnnn2)c1` are 1, 0.764 µM and 0.718 µM.
For `c1ccc(-n2cnnn2)c(-c2nc(-c3ccc4[nH]ncc4c3)cs2)c1`, in test [1], the Ratio IC50 was found to be 5. Besides, the IC50 in test [2] was 7.94 µM; in test [3] it was 1.54 µM.
In the case of `Nc1n[nH]c2ccc(C(=O)Nc3ccccc3Cl)cc12`, the Ratio IC50 in test [1] stood at 18. The figures for the IC50 in test [2] and in test [3] were 2.27 µM and 0.126 µM, respectively.
For `Nc1n[nH]c2ccc(C(=O)Nc3ccccc3)cc12` the same measures were 3.78, 10.8 µM and 3.23 µM.
Turning to `O=C(Nc1ccc2[nH]ncc2c1)c1cccc(Cn2cnnn2)c1`, in test [4], the inhibition turned out to be 20%.
`Nc1n[nH]c2ccc(-c3cnc(-c4ccccc4-n4cnnn4)s3)cc12`: the Ratio IC50 in test [1] came out at 2.85. Also, the IC50 in test [2] was 9.29 µM; in test [3], 3.25 µM.
The corresponding values for `Nc1n[nH]c2ccc(NC(=O)c3ccccc3Cl)cc12` are 18, 1.82 µM and 0.101 µM.
Regarding `CCNc1ccccc1C(=O)Nc1ccc2[nH]ncc2c1`, in test [1], the Ratio IC50 was found to be 6. Moreover, the IC50 in test [2] worked out at 24.1 µM; in test [3], 3.96 µM.
The corresponding values for `Nc1n[nH]c2ccc(NC(=O)c3cccc(Cl)c3)cc12` are 1.63, 0.943 µM and 0.583 µM.
In the case of `Nc1n[nH]c2ccc(NC(=O)c3ccccc3)cc12`, in test [1], the Ratio IC50 is 3.78. For the same compound, the IC50 in test [2] amounted to 10.5 µM; in test [3], 2.78 µM.

For the origin of these results see ChEMBL document CHEMBL4480435, “The impact of binding site waters on the activity/selectivity trade-off of Janus kinase 2 (JAK2) inhibitors” (Bioorg Med Chem, 2019).
